Assay results reported in ChEMBL document CHEMBL4190222, “Sulawesins A-C, Furanosesterterpene Tetronic Acids That Inhibit USP7, from a Psammocinia sp. Marine Sponge” (J Nat Prod, 2017).
Calls of active or inactive are those of the source. No cut-off for these calls is given here.

Experiments:
[1] = target: T1, Ubiquitin carboxyl-terminal hydrolase 7 (Homo sapiens, UniProt Q93009); experiment: Inhibition of recombinant His6-tagged human USP7 expressed in insect expression system using ubiquitin-Rh110 as substrate preincubated for 30 mins followed by substrate addition measured after 180 mins by fluorescence assay
Target sequence in this assay (Q93009 whole entry): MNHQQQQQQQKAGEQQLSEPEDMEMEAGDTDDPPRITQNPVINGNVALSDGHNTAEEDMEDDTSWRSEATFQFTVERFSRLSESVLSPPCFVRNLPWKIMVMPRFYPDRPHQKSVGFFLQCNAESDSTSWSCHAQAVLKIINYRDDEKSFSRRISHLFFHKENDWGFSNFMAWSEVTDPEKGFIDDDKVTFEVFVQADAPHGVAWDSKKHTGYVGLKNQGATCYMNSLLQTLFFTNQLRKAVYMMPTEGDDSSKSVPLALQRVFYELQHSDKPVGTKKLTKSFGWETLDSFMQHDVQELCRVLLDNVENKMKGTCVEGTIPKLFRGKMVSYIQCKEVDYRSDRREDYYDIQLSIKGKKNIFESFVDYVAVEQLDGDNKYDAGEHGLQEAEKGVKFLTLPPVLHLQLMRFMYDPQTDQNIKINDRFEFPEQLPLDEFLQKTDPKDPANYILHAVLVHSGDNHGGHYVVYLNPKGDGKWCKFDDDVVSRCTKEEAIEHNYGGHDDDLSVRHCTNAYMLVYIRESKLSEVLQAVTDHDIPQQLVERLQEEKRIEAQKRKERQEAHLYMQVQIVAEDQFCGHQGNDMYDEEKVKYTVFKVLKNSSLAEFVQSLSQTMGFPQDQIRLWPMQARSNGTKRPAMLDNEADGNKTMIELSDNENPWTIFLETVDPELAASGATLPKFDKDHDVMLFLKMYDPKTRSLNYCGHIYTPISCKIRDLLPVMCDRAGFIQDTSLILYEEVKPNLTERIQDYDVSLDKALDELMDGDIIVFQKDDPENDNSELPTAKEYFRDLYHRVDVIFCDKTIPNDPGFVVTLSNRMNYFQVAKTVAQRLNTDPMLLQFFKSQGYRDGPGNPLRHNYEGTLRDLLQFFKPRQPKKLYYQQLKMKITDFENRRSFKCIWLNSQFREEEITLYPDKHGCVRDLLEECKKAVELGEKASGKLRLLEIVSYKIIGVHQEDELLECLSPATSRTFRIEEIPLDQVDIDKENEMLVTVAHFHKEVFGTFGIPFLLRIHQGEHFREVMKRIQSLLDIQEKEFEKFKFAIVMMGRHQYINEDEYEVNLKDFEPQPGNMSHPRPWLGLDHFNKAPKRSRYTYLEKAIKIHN

[2] = target: T1, Ubiquitin carboxyl-terminal hydrolase 7; experiment: Inhibition of recombinant His6-tagged human USP7 expressed in insect expression system […] using ubiquitin-Rh110 as substrate preincubated for 30 mins followed by substrate addition measured after 180 mins by fluorescence assay
Target sequence in this assay (Q93009 whole entry, looked up): as the sequence (Q93009 whole entry) above

Row | SMILES | IC50 [1] [µM] | inhibition [2]
1 | CC1=C(O)/C(=C/C(C)CCC/C(C)=C/CCc2coc(Cc3ccoc3)c2)OC1=O (racemic) | 2.7 | 
2 | CC1=C(O)/C(=C/C(C)CC/C=C(/C)CCCc2coc(Cc3ccoc3)c2)OC1=O (mixture of isomers) | 3.5 | 

The next lines start with the values.

Row | IC50 [1] [µM] | inhibition [2] | SMILES
3 | 2.8 |  | CC1=C(O)/C(=C/C(C)CCC/C(C)=C/CCC2=CC(=O)[C@@H](c3ccoc3)[C@@H]2O)OC1=O (mixture of isomers)
4 | 4.6 |  | CC1=C(O)/C(=C/C(C)CC/C=C(/C)CCCC2=CC(=O)[C@@H](c3ccoc3)[C@@H]2O)OC1=O (mixture of isomers)
5 |  | Active | CCN1C(=O)C=CC1=O
